According to patent publication US20170079966A1, “INHIBITION OF TUMOR CELL INTERACTIONS WITH THE MICROENVIRONMENT RESULTING IN A REDUCTION IN TUMOR GROWTH AND DISEASE PROGRESSION” (Deciphera Pharmaceuticals, LLC, priority 2014, published 2017):
pIC50: −log10 of the molar value. Read-outs that look alike come from different tables or passages of the source.

What was measured:
[1] = test system: HMVEC capillary tube formation; experiment: HMVEC capillary tube formation; assay type: cell-based; conditions: Homo sapiens
Protocol: Growth factor reduced Matrigel gel solution (BD Biosciences, San Jose, Calif.) was dispensed using pre-chilled tips into each well of a pre-chilled 96-well black, clear bottom, tissue-culture treated plate. The plate was incubated at 37° C. for 1 h to allow the matrix to form a gel. […] The cell/Compound 1 suspensions were then transferred to the Matrigel plate wells and incubated overnight. The final concentration of DMSO in the assay was 0.5%. The next day, cells were stained with Calcein-AM dye (Life Technologies). Images obtained via fluorescent microscopy were analyzed for tube length using ImagePro Analyzer (Media Cybernetics, Rockville, Md.) with a macro to automatically detect and measure tube formation.

GSC17 glioblastoma cells = experiment: GSC17 glioma stem cell patient-derived xenograft model (tumor volume, immunohistochemistry); assay type: in vivo, mice
Protocol: For the in vivo experiments, 4- to 6-week-old female nude mice that were strictly inbred at The University of Texas MD Anderson Cancer Center and maintained in the MD Anderson Veterinary in accordance with institutional guidelines were used. For the in vivo experiments, GSC11 (5×10^5) or GSC17 (5×10^4) glioblastoma cells were implanted intracranially into nude mice. […] Control mice for these cohorts were treated with phosphate-buffered saline by i.p. injection and/or with 0.4% HPMC vehicle by oral gavage. One cohort of 10 mice per group were treated continuously and followed for survival. A separate cohort of 9 mice per group were treated continuously until the designated time point, and the tumors from these mice were extracted at 3, 4, 5 weeks in GSC11 xenograft mice model and at 3.5, 4.5, 5.5 weeks in GSC17 xenograft mice model after the start of treatment.
When the mice treated for the designated time period developed signs and symptoms of advanced tumors, they were euthanized, and their brains were removed, fixed in 4% formaldehyde for 24 hours, and embedded in paraffin. The tissues were then sectioned serially (4 μm) and stained with hematoxylin and eosin (Sigma-Aldrich). Tumor formation and phenotype were determined by histologic analysis of the hematoxylin- and eosin-stained sections. The tumor volume, greatest longitudinal diameter (length), and greatest transverse diameter (width) were measured using an external caliper and Adobe Illustrator software. The tumor volumes were calculated by the following formula: volume=½(length×width^2).
For immunohistochemical analyses, the tissue sections were deparaffinized and subjected to graded rehydration. After blocking the tissue in 5% horse and goat serum and antigen retrieval solution (citrate buffer, pH 6.0), we incubated the tissue sections overnight at 4° C. with primary antibodies against Factor VIII (1:500; A0082, Dako) to assess microvessel formation, vimentin (1:100; M0725, Dako) to assess mesenchymal marker expression, F4/80 (1:50; 123102, BioLegend) to assess monocyte infiltration, nestin (1:300; Ab6142, Abcam) to assess glioma stem cell marker expression, HGF (1:200; LS-B4657, LSBio), and TIE2 (1:50; Santa Cruz Biotechnology) to assess TIE2-expressing monocyte infiltration. Texas red fluorescein isothiocyanate-conjugated secondary antibodies or anti-rat immunoglobulin G antibodies (Invitrogen) were used for 1 hour at room temperature.
All statistical analyses were conducted with the GraphPad 6 (InStat) software for Windows 7. Survival analysis was conducted using the Kaplan-Meier method, and differences in survival between treatment groups were assessed using the log-rank test. All other comparisons were performed using an unpaired two-tailed Student t-test. Summary statistics for continuous data are expressed as the mean±standard error of the mean. P values less than 0.05 were considered statistically significant. The nestin staining was assessed using the Image-Pro Plus system version 7.0 (Media Cybernetics) in ×10 fields of at least three tumor samples per group with three to four different sections per tumor sample.

[2] = test system: SK-MEL-28 and SK-MEL-5 cells (pERK, pMET, AKT); experiment: HGF-stimulated melanoma cell signal transduction assay; assay type: cell-based; conditions: 50 nM, 50 ng/mL HGF 1 hr
Protocol: SK-MEL-5 and SK-MEL-28 cells were added to 12-well plates at 450,000 and 250,000 cells/well, respectively, and incubated overnight. […] Cells were then stimulated with 50 ng/mL HGF for 1 hr. Antibodies were obtained from Cell Signaling Technology.

B16/F10 cells = experiment: B16/F10 metastatic melanoma model; conditions: Compound 1 15 mg/kg

Q: Which results are given for `O=C(Nc1cc(Oc2cc(F)c(NC(=O)C3(C(=O)Nc4ccc(F)cc4)CC3)cc2F)ccn1)C1CC1` [Compound 1, N-(4-(2-(cyclopropanecarboxamido)pyridin-4-yloxy)-2,5-difluorophenyl)-N′-(4-fluorophenyl)cyclopropane-1,1-dicarboxamide]?
A: pIC50 ([1]; 40 ng/mL HGF, read-out: IC50, capillary tube formation upon stimulation with HGF): 7.96; pIC50 ([1]; 100 ng/mL VEGF, read-out: IC50, capillary tube formation upon stimulation with VEGF): 7.24; pIC50 ([1]; 200 ng/mL ANG2, read-out: IC50, capillary tube formation upon stimulation with ANG2): 8.15; Tumor volume at 3.5 weeks (GSC17 glioblastoma cells; GSC17, bevacizumab 10 mg/kg i.p. twice per week, Compound 1 10 mg/kg oral twice daily): 0.1±0.2 mm^3; Tumor volume at 4.5 weeks (GSC17 glioblastoma cells; GSC17, same dosing): 9.8±3.9 mm^3; Tumor volume at 5.5 weeks (GSC17 glioblastoma cells; GSC17, same dosing): 10.1±1.4 mm^3; Factor VIII-positive area (GSC17 glioblastoma cells; GSC17 xenograft mouse model): 1.0±0.2%; Nestin-positive area (GSC17 glioblastoma cells; GSC17 xenograft mouse model): 2.9±1.0%; Mesenchymal tumor marker vimentin / EMT (immunohistochemistry) (GSC17 glioblastoma cells; GSC-17 glioma model): decreases levels of vimentin; Tumor infiltration of TIE2-positive/F4/80-positive cells (GSC17 glioblastoma cells; GSC-17 glioma xenograft model): lower; HGF-induced activation of MET and AKT [2]: inhibited; T-C (B16/F10 cells): > 4.3 days; Treated animals with metastases on Day 21 (ex vivo BLI) (B16/F10 cells; 2/12 animals): 16.6%; Inhibition of the development of pulmonary metastases (B16/F10 cells; Day 21): 72%; % T/C, tumor growth on Day 21 (B16/F10 cells; treatment from Day 0): 30%
